From US20220105170A1 (priority 2019, published 2022)
“And” between values parts separate entries of the source, which are not always exact repeats. Equal entries are not always repeated.

Test system: peripheral blood lymphocytes collected from swine exposed to ASFV
Type: cell-based

Row | Substance | Number of Spots
1 | 1212 (TFLLKKRMEL) [compound 1212] | 19
2 | 1227 (ETYARLSSY) [compound 1227] | 12
3 | 1228 (SSYNRSLLH) [compound 1228] | 15
4 | 1264 (RINRNYYPYYI) [compound 1264] | 12
5 | 1265 (INRNYYPYY) [compound 1265] | 12
6 | 1278 (NYYPYYIY) [compound 1278] | 16
7 | 1279 (YPYYIYKIF) [compound 1279] | 12
8 | 1287 (VHFNAHFKPY) [compound 1287] | 14
9 | 1288 (HFNAHFKPY) [compound 1288] | 16
10 | 1295 (SQMGAHGQL) [compound 1295] | 17
11 | 1296 (HGQLQTFPR) [compound 1296] | 16
12 | 1345 (RVRFSLIRV) [compound 1345] | 16
13 | 1347 (LMSALKWPI) [compound 1347] | 17
14 | 1348 (LMSALKWPIEY) [compound 1348] | 12
15 | 1370 (GAMMITFAL) [compound 1370] | 14
16 | 1372 (NVSRAREFY) [compound 1372] | 12
17 | 1375 (RAREFYISW) [compound 1375] | 15
18 | 1379 (VVSASAINF) [compound 1379] | 13
19 | 1388 (LVYELPAPF) [compound 1388] | 14
20 | 1390 (QQMLTRHIY) [compound 1390] | 12
21 | 1394 (SSFKCWTCHLY) [compound 1394] | 14
22 | 1400 (KESAETIYTF) [compound 1400] | 14

Row | Substance | Number of Spots
23 | 1413 (ISSMSVSTFW) [compound 1413] | 12
24 | 1436 (NKANKAFYI) [compound 1436] | 13
25 | 1437 (KANKAFYINH) [compound 1437] | 12 and 16
26 | 1454 (INHLYKFLL) [compound 1454] | 12 and 18
27 | 1459 (KITSVTEFY) [compound 1459] | 19
28 | 1461 (YTLLSPLQSY) [compound 1461] | 13 and 17
29 | 1468 (ITYLNNMGY) [compound 1468] | 13
30 | 1472 (KVDLPYHLM) [compound 1472] | 16
31 | 1483 (KTIKHYEQL) [compound 1483] | 12
32 | 1484 (GTSYLRMAY) [compound 1484] | 14
33 | 1488 (STQFMIQYF) [compound 1488] | 13
34 | 1491 (MIADAINQEF) [compound 1491] | 13
35 | 1499 (AVNLLRQTF) [compound 1499] | 14
36 | 1501 (ALDLSLIGFY) [compound 1501] | 14
37 | 1503 (KTDPNFKNL) [compound 1503] | 13
38 | 1507 (ATVSAIELEY) [compound 1507] | 13
39 | 1509 (TLAQVFESF) [compound 1509] | 17
40 | 1510 (FTDNAPAGHYY) [compound 1510] | 15
41 | 1511 (RSLSNFQAL) [compound 1511] | 17
42 | 1512 (QIYKTLLEY) [compound 1512] | 21
43 | 1514 (EAAELYFRL) [compound 1514] | 15
44 | 1517 (ATKKALIHF) [compound 1517] | 13

Row | Substance | Number of Spots
45 | 1519 (FGMMNQTNY) [compound 1519] | 13
46 | 1523 (STAQVHLDF) [compound 1523] | 14
47 | 1528 (KTYTLLTKPY) [compound 1528] | 13
48 | 1531 (MVFNQLIASY) [compound 1531] | 12
49 | 1543 (NIYNYDYSF) [compound 1543] | 12
50 | 1544 (GSLYPTQFDY) [compound 1544] | 14
51 | 1556 (QVVFHAGSLY) [compound 1556] | 13
52 | 1566 (ARIYAGQGY) [compound 1566] | 14
53 | 1567 (QAQEEWNMIL) [compound 1567] | 13
54 | 1571 (KTVQHIEQY) [compound 1571] | 14
55 | 1573 (KVIRAHNFI) [compound 1573] | 12
56 | 1580 (SNMKQFCKI) [compound 1580] | 12
57 | 1619 (IDFDPLVTFY) [compound 1619] | 16
58 | 1627 (GTDLYQSAM) [compound 1627] | 12
59 | 1628 (SAMLEFKKF) [compound 1628] | 12
60 | 1630 (AMLEFKKFF) [compound 1630] | 12
61 | 1631 (FTQITRQTF) [compound 1631] | 12
62 | 1633 (ITRQTFMDI) [compound 1633] | 14
63 | 1648 (RTLMDQPTY) [compound 1648] | 14
64 | 1649 (TLMDQPTY) [compound 1649] | 18
65 | 1651 (RFSRPGNNY) [compound 1651] | 17
66 | 1658 (AFINSTDFLY) [compound 1658] | 12

Row | Substance | Number of Spots
67 | 1685 (NINRLMPYF) [compound 1685] | 12
68 | 1693 (EVYAPYMHY) [compound 1693] | 12
69 | 1701 (YTGIQSPLF) [compound 1701] | 13
70 | 1706 (RLQTPIPVY) [compound 1706] | 13
71 | 1718 (SSELHFYVF) [compound 1718] | 15
72 | 1736 (VTQRNQNYF) [compound 1736] | 13
73 | 1749 (TLDFDRMWY) [compound 1749] | 15
74 | 1750 (SMSYFDGKTEY) [compound 1750] | 17
75 | 1753 (YFDTFANAM) [compound 1753] | 13
76 | 1759 (VQLANSSVYY) [compound 1759] | 15
77 | 1761 (SVYHVQEEL) [compound 1761] | 12
78 | 1767 (LLDTNTNFY) [compound 1767] | 13 and 21
79 | 1783 (GMQDGIRWFY) [compound 1783] | 13
80 | 1810 (KTIFNNVRY) [compound 1810] | 13
81 | 1814 (YTIHYSMPY) [compound 1814] | 17
82 | 1823 (YTKFFNCPF) [compound 1823] | 25
83 | 1824 (SMMDFERVHY) [compound 1824] | 14
84 | 1828 (RSQTECGPY) [compound 1828] | 14
85 | 1830 (SVMALAKMY) [compound 1830] | 12
86 | 1835 (KILGLLLAY) [compound 1835] | 21
87 | 1836 (GKTMPVEFYY) [compound 1836] | 17
88 | 1840 (SLANHTVKYY) [compound 1840] | 14

Row | Substance | Number of Spots
89 | 1841 (SMFKHFDNM) [compound 1841] | 17
90 | 1852 (HTLIISPEF) [compound 1852] | 15
91 | 1864 (SMPMSMIGPY) [compound 1864] | 13
92 | 1873 (KLYTAALGVY) [compound 1873] | 12
93 | 1875 (ISPRISYQF) [compound 1875] | 12
94 | 1880 (FLNAYAHKL) [compound 1880] | 12
95 | 1912 (KQFEMFNMVY) [compound 1912] | 12
96 | 1923 (RISSELISY) [compound 1923] | 13
97 | 1941 (AIEEEDIQF) [compound 1941] | 12
98 | 1950 (ELVDHIFNY) [compound 1950] | 16
99 | 1952 (LSKNIAAEY) [compound 1952] | 17
100 | 1955 (SSAELYRKM) [compound 1955] | 14
101 | 1982 (NAFEWIHFV) [compound 1982] | 14
102 | 1986 (KINQRSFSF) [compound 1986] | 13
103 | 1989 (RMHIYETNLY) [compound 1989] | 14
104 | 1991 (KQELSRLIY) [compound 1991] | 29
105 | 2037 (MCGKRNCPLY) [compound 2037] | 12
106 | 2038 (CGKRNCPLYY) [compound 2038] | 12
107 | 2075 (KSCYPLVFI) [compound 2075] | 12
108 | 2092 (KAKIAFPPEY) [compound 2092] | 17
109 | 2118 (MMQTAIQKNYF) [compound 2118] | 13
110 | 2125 (TAIQKNYFR) [compound 2125] | 14
